Experimental data published in PMC5289826 (PLoS ONE, 2017).

system: not given; experiment: not given; details: not given

Q: With `Cc1ccc(-c2cccc(C(=O)N3CCC[C@H]3C(N)=O)c2)cc1F` [3f, (S)-1-(3’-fluoro-4’-methyl-[1,1’-biphenyl]-3-carbonyl)-pyrrolidine-2-carboxamide] as the molecule, how does the melting point read?
A: 73 to 75 °C

Q: For `CC1CCN(C(=O)c2cccc(-c3ccc(C(N)=O)cc3)c2)CC1` [9b, 3’-(4-methylpiperidine-1-carbonyl)-[1,1’-biphenyl]-4-carboxamide], which melting point is on record?
A: 188 to 190 °C

Q: Which melting point does the source give for `O=C(c1cccc(-c2ccc(Cl)cc2)c1)N1CCCCCC1` [5e, Azepan-1-yl(4’-chloro-[1,1’-biphenyl]-3-yl)methanone] here?
A: 116 to 117 °C

Q: For `O=C(c1cccc(-c2ccc(O)cc2)c1)N1CCCCCC1` [7e, Azepan-1-yl(4’-hydroxy-[1,1’-biphenyl]-3-yl)methanone], which melting point is on record?
A: 184 to 185 °C

Q: With `Cc1ccc(-c2cccc(C(=O)N3CCCCCC3)c2)cc1` [1e, Azepan-1-yl(4’-methyl-[1,1’-biphenyl]-3-yl)methanone] as the molecule, how does the melting point read?
A: 109 to 111 °C

system: human skin biopsies; experiment: Dermal total collagen content in ex vivo human skin biopsies (Picrosirius Red); details: 10 nM, 100 nM and 1 μM cortisone; p<0.01
Protocol: Ex vivo skin experiments were performed as contract research by Cutech Biotechnology following the Helsinki declaration and who obtained permission as well as informed consent from the patient (Padova, Italy). Human skin from abdominal plastic surgery of a donor was used. Skin samples were cut in pieces of approximately 8 × 3 mm (diameter × thickness) and cultured in an air-liquid interface in a perforated ring of stainless steel in contact with culture medium (modified Williams’ E medium, Sigma Aldrich) up to day 6. The culture medium was renewed on day 0 and day 3. The test compounds were applied topically and renewed daily. The application was performed as follows: skin biopsies were gently cleaned with a cotton pad and 4 μL of 10 μM or 100 μM test compound were applied on top of each piece and covered with a 6 mm (diameter) delivery membrane (CoTran 9728 Controlled Caliper Ethylene Vinyl Acetate Membrane, 3M, St. Paul, MN, USA).
Skin viability was assessed in two skin biopsies after 6 days of treatment using methylthiazolyldiphenyl‐tetrazolium bromide (MTT, Sigma Aldrich) staining. Total dermal collagen in skin sections was semi-quantitatively evaluated by Picrosirius Red histochemical staining (using Picric Acid, Fast Green FCF and Direct Red from Sigma Aldrich) that dyes collagen fibers in purple-red. […] The evaluation was performed by estimating both color intensity and distribution using IMAGE J (NIH) analysis software, allowing to obtain a semi-quantitative evaluation of dermal collagen (collagen score). Two slides of each skin sample were processed by image acquisition and related analysis (i.e. 12 images for each treatment).

Q: With `C[C@]12CCC(=O)C=C1CC[C@@H]1[C@@H]2C(=O)C[C@@]2(C)[C@H]1CC[C@]2(O)C(=O)CO` [cortisone, reference compound] as the molecule, how does the “decrease in dermal collagen” value read?
A: 20–26%

biological target: T1, recombinant human 11β-HSD1 (Homo sapiens, UniProt P28845); experiment: 11β-HSD1 enzyme activity in cell lysates (cortisone to cortisol, radiolabeled tracer, TLC); format: biochemical; details: not given
T1 construct: expressed in transfected cells
Protocol: (§1) Human embryonic kidney (HEK-293) cells either stably expressing human 11β-HSD1 and H6PDH (HHH7 clone, [38]) or 11β-HSD2 (AT8 clone, [39]), or transiently expressing human 17β-HSD1 or 17β-HSD2, were cultivated in Dulbecco’s modified Eagle medium (DMEM) containing 4.5 g/L glucose, 10% fetal bovine serum, 100 U/mL penicillin, 0.1 mg/mL streptomycin, 1 × MEM nonessential amino acids, and 10 mM HEPES buffer, pH 7.4. Cells were washed with phosphate-buffered saline (PBS), centrifuged for 4 min at 150 × g, and the cell pellets were snap frozen on dry ice and stored at −80°C until further use.
(§2) Cell lysates were resuspended in TS2 buffer (100 mM NaCl, 1 mM EGTA, 1 mM EDTA, 1 mM MgCl2, 250 mM sucrose, 20 mM Tris-HCl, pH 7.4), followed by sonication at 4°C using a Hielscher UP50H ultrasonic processor (0.3 cycle, 20 amplitude %, 20 impulses; Hielscher Ultrasonics GmbH, Teltow Germany). Cell lysates, reaction mixture, and either vehicle (DMSO) or inhibitor were incubated for 10 min at 37°C in a final volume of 22.2 μL. The solvent concentration was 0.1%. […] 11β-HSD2 activity was measured in the presence of 50 nM cortisol and 500 μM NAD^+. An amount of 50 nCi of radiolabeled tracer substrate was included in the experiments. […] The bands of the corresponding steroids were excised, followed by scintillation counting and calculation of the amount of substrate conversion. Data were obtained from at least three independent measurements. Glycyrrhetinic acid (CTRL 1) was used as positive control for 11β-HSD1 and 11β-HSD2 inhibition, apigenin (CTRL 2) for 17β-HSD1, and compound 22 from Vuorinen et al. [40](CTRL 3) for 17β-HSD2 inhibition.

T1 sequence (P28845 whole entry): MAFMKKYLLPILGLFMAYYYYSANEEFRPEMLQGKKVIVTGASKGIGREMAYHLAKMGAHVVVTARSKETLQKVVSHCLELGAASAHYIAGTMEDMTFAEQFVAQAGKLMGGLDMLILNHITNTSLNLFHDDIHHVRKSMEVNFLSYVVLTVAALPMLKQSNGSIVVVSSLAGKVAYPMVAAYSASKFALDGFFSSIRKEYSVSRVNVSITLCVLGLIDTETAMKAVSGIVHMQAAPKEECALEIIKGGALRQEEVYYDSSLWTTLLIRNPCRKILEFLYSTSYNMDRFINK

Q: Which IC50 does the source give for `Cc1ccc(-c2cccc(C(=O)N3CCC(C)CC3)c2)cc1` [1b, (4’-Methyl-[1,1’-biphenyl]-3-yl)(4-methylpiperidin-1-yl)methanone] here?
A: 47.7 nM

Q: Which IC50 does the source give for `Cc1ccc(-c2cccc(C(=O)N3CCCC(C)(C)C3)c2)cc1F` [3a, (3,3-Dimethylpiperidin-1-yl)(3’-fluoro-4’-methyl-[1,1’-biphenyl]-3-yl)methanone] here?
A: 47.2 nM

Q: With `Cc1ccc(-c2cccc(C(=O)N3CCOC(C)(C)C3)c2)cc1F` [3c, (2,2-Dimethylmorpholino)(3’-fluoro-4’-methyl-[1,1’-biphenyl]-3-yl)methanone] as the molecule, how does the IC50 read?
A: 27.9 nM

Q: For `Cc1ccc(-c2cccc(C(=O)N3CCCCCC3)c2)cc1` [1e, Azepan-1-yl(4’-methyl-[1,1’-biphenyl]-3-yl)methanone], which IC50 is on record?
A: 37.4 nM

same assay, conditions: 100 nM compound; lysates of HEK-293 cells; 200 nM cortisone; mean of three experiments

Q: With `Cc1ccc(-c2cccc(C(=O)N3CCC(C)CC3)c2)cc1` [1b, (4’-Methyl-[1,1’-biphenyl]-3-yl)(4-methylpiperidin-1-yl)methanone] as the molecule, how does the “11β-HSD1 Residual activity, % of control at 100 nM” value read?
A: 52 % of control

Q: Which “11β-HSD1 Residual activity, % of control at 100 nM” value does the source give for `Cc1ccc(-c2cccc(C(=O)N3CCCC(C)(C)C3)c2)cc1F` [3a, (3,3-Dimethylpiperidin-1-yl)(3’-fluoro-4’-methyl-[1,1’-biphenyl]-3-yl)methanone] here?
A: 60 % of control

Q: Which “11β-HSD1 Residual activity, % of control at 100 nM” value does the source give for `Cc1ccc(-c2cccc(C(=O)N3CCOC(C)(C)C3)c2)cc1F` [3c, (2,2-Dimethylmorpholino)(3’-fluoro-4’-methyl-[1,1’-biphenyl]-3-yl)methanone] here?
A: 14 % of control

Q: With `Cc1ccc(-c2cccc(C(=O)N3CCC[C@H]3C(N)=O)c2)cc1F` [3f, (S)-1-(3’-fluoro-4’-methyl-[1,1’-biphenyl]-3-carbonyl)-pyrrolidine-2-carboxamide] as the molecule, how does the “11β-HSD1 Residual activity, % of control at 100 nM” value read?
A: > 90 % of control

Q: For `CC1CCN(C(=O)c2cccc(-c3ccc(C(N)=O)cc3)c2)CC1` [9b, 3’-(4-methylpiperidine-1-carbonyl)-[1,1’-biphenyl]-4-carboxamide], which “11β-HSD1 Residual activity, % of control at 100 nM” value is on record?
A: 65 % of control

Q: For `O=C(c1cccc(-c2ccc(Cl)cc2)c1)N1CCCCCC1` [5e, Azepan-1-yl(4’-chloro-[1,1’-biphenyl]-3-yl)methanone], which “11β-HSD1 Residual activity, % of control at 100 nM” value is on record?
A: 50 % of control

Q: For `O=C(c1cccc(-c2ccc(O)cc2)c1)N1CCCCCC1` [7e, Azepan-1-yl(4’-hydroxy-[1,1’-biphenyl]-3-yl)methanone], which “11β-HSD1 Residual activity, % of control at 100 nM” value is on record?
A: 28 % of control

Q: For `Cc1ccc(-c2cccc(C(=O)N3CCCCCC3)c2)cc1` [1e, Azepan-1-yl(4’-methyl-[1,1’-biphenyl]-3-yl)methanone], which “11β-HSD1 Residual activity, % of control at 100 nM” value is on record?
A: 17 % of control

same assay, conditions: 1 μM compound; lysates of HEK-293 cells; 200 nM cortisone; mean of three experiments

Q: For `Cc1ccc(-c2cccc(C(=O)N3CCC(C)CC3)c2)cc1` [1b, (4’-Methyl-[1,1’-biphenyl]-3-yl)(4-methylpiperidin-1-yl)methanone], which “11β-HSD1 Residual activity, % of control at 1 μM” value is on record?
A: 1 % of control

Q: For `Cc1ccc(-c2cccc(C(=O)N3CCCC(C)(C)C3)c2)cc1F` [3a, (3,3-Dimethylpiperidin-1-yl)(3’-fluoro-4’-methyl-[1,1’-biphenyl]-3-yl)methanone], which “11β-HSD1 Residual activity, % of control at 1 μM” value is on record?
A: 3 % of control

Q: Which “11β-HSD1 Residual activity, % of control at 1 μM” value does the source give for `Cc1ccc(-c2cccc(C(=O)N3CCOC(C)(C)C3)c2)cc1F` [3c, (2,2-Dimethylmorpholino)(3’-fluoro-4’-methyl-[1,1’-biphenyl]-3-yl)methanone] here?
A: 1 % of control

Q: With `Cc1ccc(-c2cccc(C(=O)N3CCC[C@H]3C(N)=O)c2)cc1F` [3f, (S)-1-(3’-fluoro-4’-methyl-[1,1’-biphenyl]-3-carbonyl)-pyrrolidine-2-carboxamide] as the molecule, how does the “11β-HSD1 Residual activity, % of control at 1 μM” value read?
A: > 90 % of control

Q: Which “11β-HSD1 Residual activity, % of control at 1 μM” value does the source give for `CC1CCN(C(=O)c2cccc(-c3ccc(C(N)=O)cc3)c2)CC1` [9b, 3’-(4-methylpiperidine-1-carbonyl)-[1,1’-biphenyl]-4-carboxamide] here?
A: 19 % of control

Q: Which “11β-HSD1 Residual activity, % of control at 1 μM” value does the source give for `O=C(c1cccc(-c2ccc(Cl)cc2)c1)N1CCCCCC1` [5e, Azepan-1-yl(4’-chloro-[1,1’-biphenyl]-3-yl)methanone] here?
A: 2 % of control

same assay, conditions: cell lysates; SAR comparison within the series

Q: With `Cc1ccc(-c2cccc(C(=O)N3CCC[C@H]3C(N)=O)c2)cc1F` [3f, (S)-1-(3’-fluoro-4’-methyl-[1,1’-biphenyl]-3-carbonyl)-pyrrolidine-2-carboxamide] as the molecule, how does the “activity towards 11β-HSD1, effect of substituent (in words)” value read?
A: abolished the activity

Q: Which “activity towards 11β-HSD1, effect of substituent (in words)” value does the source give for `CC1CCN(C(=O)c2cccc(-c3ccc(C(N)=O)cc3)c2)CC1` [9b, 3’-(4-methylpiperidine-1-carbonyl)-[1,1’-biphenyl]-4-carboxamide] here?
A: substantial loss of activity

system: T2, recombinant human 11β-HSD2; experiment: 11β-HSD2 enzyme activity in cell lysates (cortisol to cortisone); format: biochemical; details: 1 μM compound; lysates of HEK-293 cells; 50 nM cortisol
T2 construct: expressed in transfected cells
Protocol: as §1, §2

Q: For `Cc1ccc(-c2cccc(C(=O)N3CCC(C)CC3)c2)cc1` [1b, (4’-Methyl-[1,1’-biphenyl]-3-yl)(4-methylpiperidin-1-yl)methanone], which “11β-HSD2 Residual activity, % of control at 1 μM” value (from here on “11β-HSD2 Residual activity, %”) is on record?
A: > 90 % of control

Q: With `Cc1ccc(-c2cccc(C(=O)N3CCCC(C)(C)C3)c2)cc1F` [3a, (3,3-Dimethylpiperidin-1-yl)(3’-fluoro-4’-methyl-[1,1’-biphenyl]-3-yl)methanone] as the molecule, how does the “11β-HSD2 Residual activity, %” value read?
A: > 90 % of control

Q: With `Cc1ccc(-c2cccc(C(=O)N3CCC[C@H]3C(N)=O)c2)cc1F` [3f, (S)-1-(3’-fluoro-4’-methyl-[1,1’-biphenyl]-3-carbonyl)-pyrrolidine-2-carboxamide] as the molecule, how does the “11β-HSD2 Residual activity, %” value read?
A: > 90 % of control

Q: Which “11β-HSD2 Residual activity, %” value does the source give for `CC1CCN(C(=O)c2cccc(-c3ccc(C(N)=O)cc3)c2)CC1` [9b, 3’-(4-methylpiperidine-1-carbonyl)-[1,1’-biphenyl]-4-carboxamide] here?
A: > 90 % of control

Q: Which “11β-HSD2 Residual activity, %” value does the source give for `O=C(c1cccc(-c2ccc(Cl)cc2)c1)N1CCCCCC1` [5e, Azepan-1-yl(4’-chloro-[1,1’-biphenyl]-3-yl)methanone] here?
A: > 90 % of control

Q: With `O=C(c1cccc(-c2ccc(O)cc2)c1)N1CCCCCC1` [7e, Azepan-1-yl(4’-hydroxy-[1,1’-biphenyl]-3-yl)methanone] as the molecule, how does the “11β-HSD2 Residual activity, %” value read?
A: > 90 % of control

Q: For `Cc1ccc(-c2cccc(C(=O)N3CCCCCC3)c2)cc1` [1e, Azepan-1-yl(4’-methyl-[1,1’-biphenyl]-3-yl)methanone], which “11β-HSD2 Residual activity, %” value is on record?
A: > 90 % of control
